# Results: ChEMBL document CHEMBL5375980, “PSMA-targeted small-molecule drug-conjugates with valine-citrulline and phosphoramidate cleavable linkers” (Bioorg Med Chem Lett, 2024)
# Activity calls are given as the source filed them. No cut-off for these calls is given here. Where a SMILES comes first, the peptide text is derived from it. [ ]: non-standard residue; d: D form. The star is where a group is joined. Dolaproine = CO[C@@H]([C@@H]1CCCN1)[C@@H](C)C(=O)O; Dil = CC[C@H](C)[C@H](NC)[C@@H](CC(=O)O)OC; X1 = C[C@@H](N*)[C@@H](O)c1ccccc1; NMeV = CN[C@H](C(=O)O)C(C)C
# Experiments:
# LNCaP C4-2B [1] = experiment: Anticancer activity against PSMA positive human LNCaP C4-2B cells assessed as cell viability at 10 nM incubated for 72 hrs by CellTiter-Glo Luminescent Cell Viability assay relative to control; format: functional; settings: read-out: Activity
# PC3-PIP cell = experiment: Anticancer activity against PSMA positive human PC3-PIP cells assessed as reduction in cell viability incubated for 72 hrs by CellTiter-Glo Luminescent Cell Viability assay; format: functional, cell-based; settings: dose 4-100 µM
# LNCaP C4-2B [2] = experiment: Anticancer activity against PSMA positive human LNCaP C4-2B cells assessed as cell viability at 100 nM incubated for 72 hrs by CellTiter-Glo Luminescent Cell Viability assay relative to control; format: functional; settings: read-out: Activity
# LNCaP C4-2B [3] = experiment: Anticancer activity against PSMA positive human LNCaP C4-2B cells assessed as cell viability at 20 nM incubated for 72 hrs by CellTiter-Glo Luminescent Cell Viability assay relative to control; format: functional; settings: read-out: Activity
# [4] = Anticancer activity against PMSA positive human PC3-PIP cells assessed as cell viability at 10 nM incubated for 72 hrs by CellTiter-Glo Luminescent Cell Viability assay relative to control; format: functional; settings: read-out: Activity
# PC-3 [5] = experiment: Anticancer activity against PMSA negative human PC-3 cells assessed as reduction in cell viability at 10 nM incubated for 72 hrs by CellTiter-Glo Luminescent Cell Viability assay; format: functional, cell-based
# LNCaP C4-2B [6] = experiment: Anticancer activity against PSMA positive human LNCaP C4-2B cells assessed as reduction in cell viability incubated for 72 hrs by CellTiter-Glo Luminescent Cell Viability assay; format: functional, cell-based; settings: dose […]
# LNCaP C4-2B [7] = experiment: Anticancer activity against PSMA positive human LNCaP C4-2B cells assessed as reduction in cell viability at 10 nM incubated for 72 hrs by CellTiter-Glo Luminescent Cell Viability assay; format: functional, cell-based
# [8] = Anticancer activity against PSMA positive human PC3-PIP cells assessed as cell viability at 100 nM incubated for 72 hrs by CellTiter-Glo Luminescent Cell Viability assay relative to control; format: functional; settings: read-out: Activity
# [9] = Anticancer activity against PSMA positive human PC3-PIP cells assessed as cell viability at 4 nM incubated for 72 hrs by CellTiter-Glo Luminescent Cell Viability assay relative to control; format: functional; settings: read-out: Activity
# PC-3 [10] = experiment: Anticancer activity against PMSA negative human PC-3 cells assessed as cell viability at 10 nM incubated for 72 hrs by CellTiter-Glo Luminescent Cell Viability assay relative to control; format: functional; settings: read-out: Activity
structure (smiles),measurement,setting,value
CC[C@H](C)[C@@H]([C@@H](CC(=O)N1CCC[C@H]1[C@H](OC)[C@@H](C)C(=O)N[C@H](C)[C@@H](O)c1ccccc1)OC)N(C)C(=O)[C@@H](NC(=O)[C@H](C(C)C)N(C)C(=O)OCc1ccc(OC(=O)N(C)CCN(C)P(=O)(O)OCC[C@H](NC(=O)c2ccc(Cn3nnc4c3-c3ccccc3N(C(=O)CCC(=O)NCCOCCOCCOCCOCCC(=O)NCCCCCC(=O)N[C@@H](CCC(=O)N[C@@H](CCCOP(=O)(O)N[C@@H](CCC(=O)O)C(=O)O)C(=O)O)C(=O)O)c3ccccc3-4)cc2)C(=O)O)cc1)C(C)C,viability at 0.01 µM,LNCaP C4-2B [1],58.8%
same,Activity,PC3-PIP cell,Dose-Dependent Effect
same,viability at 0.1 µM,LNCaP C4-2B [2],7.44%
same,viability at 0.02 µM,LNCaP C4-2B [3],28.7%
same,viability at 0.01 µM,[4],47.2%
same,Activity,PC-3 [5],inactive
same,Activity,LNCaP C4-2B [6],Dose-Dependent Effect
CC[C@H](C)[C@@H]([C@@H](CC(=O)N1CCC[C@H]1[C@H](OC)[C@@H](C)C(=O)N[C@H](C)[C@@H](O)c1ccccc1)OC)N(C)C(=O)[C@@H](NC(=O)[C@H](C(C)C)N(C)C(=O)OCc1ccc(NC(=O)[C@H](CCCNC(N)=O)NC(=O)[C@@H](NC(=O)c2ccc(Cn3nnc4c3-c3ccccc3N(C(=O)CCC(=O)NCCOCCOCCOCCOCCC(=O)NCCCCCC(=O)N[C@@H](CCC(=O)N[C@@H](CCCOP(=O)(O)N[C@@H](CCC(=O)O)C(=O)O)C(=O)O)C(=O)O)c3ccccc3-4)cc2)C(C)C)cc1)C(C)C,Activity,LNCaP C4-2B [7],inactive
same,viability at 0.01 µM,[4],< 50%
same,Activity,PC-3 [5],inactive
same,viability at 0.1 µM,[8],25.8%
same,viability at 0.004 µM,[9],80.9%
CC[C@H](C)[C@@H]([C@@H](CC(=O)N1CCC[C@H]1[C@H](OC)[C@@H](C)C(=O)N[C@H](C)[C@@H](O)c1ccccc1)OC)N(C)C(=O)[C@@H](NC(=O)[C@@H](NC)C(C)C)C(C)C (H-[NMeV]V[Dil][Dolaproine]-X1),viability at 0.01 µM,LNCaP C4-2B [1],< 50%
same,viability at 0.01 µM,[4],< 50%
same,viability at 0.01 µM,PC-3 [10],< 50%
